Source: ChEMBL document CHEMBL4680157, “Design, synthesis and biological evaluation of novel TRβ selective agonists sustained by ADME-toxicity analysis” (Eur J Med Chem, 2020)

Tests used:
[1] = Toxicity in F344 rat assessed as increase in heart and body weight ratio at 50 to 100 ug per 100 g body weight, ig administered daily for 3 days; conditions: in vivo, po, 72 h, dose 50-100 µg, time 3 day
[2] = Toxicity in F344 rat assessed as reduction in liver and body weight ratio at 50 to 100 ug per 100 g body weight, ig administered daily for 3 days; format: tissue-based; conditions: in vivo, po, 72 h, dose 50-100 µg, time 3 day
[3] = Toxicity in F344 rat assessed as effect on serum AST/GOT level at 20 ug per 100 g of body weight, ig administered daily for 3 days (reference value: 153 +/- 11 U/L); conditions: in vivo, po, 72 h, dose 20 µg, time 3 day
[4] = Toxicity in F344 rat assessed as effect on serum cholesterol level at 20 ug per 100 g of body weight, ig administered daily for 3 days (reference value: 67.2 +/- 2.5 mg/dl); conditions: in vivo, po, 72 h, dose 20 µg, time 3 day
[5] = Toxicity in F344 rat assessed as increase in heart weight at 50 to 100 ug per 100 g body weight, ig administered daily for 3 days; conditions: in vivo, po, 72 h, dose 50-100 µg, time 3 day
[6] = Toxicity in F344 rat assessed as effect on serum ALT/GPT level at 20 ug per 100 g of body weight, ig administered daily for 3 days (reference value: 46 +/- 4 U/L); conditions: in vivo, po, 72 h, dose 20 µg, time 3 day
[7] = Toxicity in F344 rat assessed as effect on serum glucose level at 20 ug per 100 g of body weight, ig administered daily for 3 days (reference value: 151 +/- 13.5 mg/dl); conditions: in vivo, po, 72 h, dose 20 µg, time 3 day
[8] = Toxicity in F344 rat assessed as effect on serum bilirubin level at 20 ug per 100 g of body weight, ig administered daily for 3 days (reference value: 1.4 +/- 0.2 mg/dl); conditions: in vivo, po, 72 h, dose 20 µg, time 3 day
[9] = Toxicity in F344 rat assessed as effect on serum triglycerides level at 20 ug per 100 g of body weight, ig administered daily for 3 days (reference value: 86.8 +/- 10.4 mg/dl); conditions: in vivo, po, 72 h, dose 20 µg, time 3 day
[10] = biological target: 3',5'-cyclic-AMP phosphodiesterase 4C (Homo sapiens) (UniProt Q08493); assay: Inhibition of PDE4C1 (unknown origin) at 10 uM relative to control
HDAC9 = HDAC9 (Homo sapiens, UniProt Q9UKV0); assay: Inhibition of HDAC9 (unknown origin) at 10 uM relative to control
HDAC6 = biological target: T1, HDAC6 (Homo sapiens, UniProt Q9UBN7); assay: Inhibition of HDAC6 (unknown origin) at 10 uM relative to control
T1 sequence (Q9UBN7 whole entry): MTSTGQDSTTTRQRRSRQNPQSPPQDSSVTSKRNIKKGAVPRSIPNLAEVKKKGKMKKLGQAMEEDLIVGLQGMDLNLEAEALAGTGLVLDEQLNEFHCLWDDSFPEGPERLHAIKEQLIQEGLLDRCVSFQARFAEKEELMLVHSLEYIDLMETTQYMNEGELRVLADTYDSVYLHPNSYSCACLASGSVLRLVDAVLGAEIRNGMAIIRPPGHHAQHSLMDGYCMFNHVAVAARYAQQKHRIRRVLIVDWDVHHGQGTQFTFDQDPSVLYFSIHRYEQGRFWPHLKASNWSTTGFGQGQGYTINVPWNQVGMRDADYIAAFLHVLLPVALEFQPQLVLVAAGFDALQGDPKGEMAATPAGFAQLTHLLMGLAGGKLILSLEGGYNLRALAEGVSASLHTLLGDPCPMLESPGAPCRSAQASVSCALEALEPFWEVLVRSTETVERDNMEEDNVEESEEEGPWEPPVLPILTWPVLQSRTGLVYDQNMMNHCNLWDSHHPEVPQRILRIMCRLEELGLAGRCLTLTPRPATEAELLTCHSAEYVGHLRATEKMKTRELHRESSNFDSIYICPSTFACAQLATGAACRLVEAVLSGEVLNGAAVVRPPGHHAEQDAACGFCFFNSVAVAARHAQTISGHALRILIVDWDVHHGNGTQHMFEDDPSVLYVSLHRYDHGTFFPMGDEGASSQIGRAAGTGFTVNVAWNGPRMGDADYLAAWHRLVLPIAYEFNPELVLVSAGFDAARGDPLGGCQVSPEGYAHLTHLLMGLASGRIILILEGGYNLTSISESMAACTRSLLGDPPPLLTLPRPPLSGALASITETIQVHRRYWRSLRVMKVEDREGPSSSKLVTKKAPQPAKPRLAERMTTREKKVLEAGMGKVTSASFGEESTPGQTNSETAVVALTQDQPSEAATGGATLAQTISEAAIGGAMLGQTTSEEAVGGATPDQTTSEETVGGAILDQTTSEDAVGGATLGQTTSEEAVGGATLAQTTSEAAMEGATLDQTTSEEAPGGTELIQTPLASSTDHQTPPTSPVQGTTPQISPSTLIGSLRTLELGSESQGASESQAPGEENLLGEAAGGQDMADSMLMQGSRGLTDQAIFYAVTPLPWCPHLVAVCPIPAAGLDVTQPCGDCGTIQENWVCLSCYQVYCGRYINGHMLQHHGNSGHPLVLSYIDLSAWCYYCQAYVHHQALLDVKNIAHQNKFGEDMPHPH

[11] = Cytotoxicity against human U2OS cells assessed as cell growth inhibition at 10 uM after 48 hrs relative to control; format: cell-based
HDAC8 = biological target: T2, HDAC8 (Homo sapiens, UniProt Q9BY41); assay: Inhibition of HDAC8 (unknown origin) at 10 uM relative to control
T2 sequence (Q9BY41 whole entry): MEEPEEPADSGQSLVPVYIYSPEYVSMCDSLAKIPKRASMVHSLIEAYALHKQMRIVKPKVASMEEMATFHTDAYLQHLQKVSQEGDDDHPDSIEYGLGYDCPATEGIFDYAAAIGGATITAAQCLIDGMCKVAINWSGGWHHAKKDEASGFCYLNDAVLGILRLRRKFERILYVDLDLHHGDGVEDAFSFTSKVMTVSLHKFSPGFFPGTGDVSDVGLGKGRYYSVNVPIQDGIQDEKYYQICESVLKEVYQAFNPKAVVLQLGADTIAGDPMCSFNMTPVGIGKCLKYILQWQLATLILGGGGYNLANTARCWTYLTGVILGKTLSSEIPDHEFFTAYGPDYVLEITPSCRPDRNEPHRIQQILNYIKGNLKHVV

Aurora B = Aurora B (Homo sapiens, UniProt Q96GD4); assay: Inhibition of Aurora B (unknown origin) at 10 uM relative to control
[12] = Cytotoxicity against human HEK293 cells assessed as cell growth inhibition at 10 uM after 24 hrs relative to control; format: cell-based
[13] = Cytotoxicity against human hTERT cells assessed as cell growth inhibition at 10 uM after 24 hrs relative to control; format: cell-based, hTERT-BJ
[14] = Cytotoxicity against human hTERT cells assessed as cell growth inhibition at 10 uM after 48 hrs relative to control; format: cell-based, hTERT-BJ
hERG (KCNH2) = hERG (KCNH2) (Homo sapiens, UniProt Q12809); assay: Inhibition of human ERG at 10 uM by fluorescence polarization assay relative to control
[15] = Cytotoxicity against human HEK293 cells assessed as cell growth inhibition at 10 uM after 48 hrs relative to control; format: cell-based
CYP2D6 = CYP2D6 (Homo sapiens, UniProt P10635); assay: Inhibition of CYP2D6 (unknown origin) at 10 uM relative to control; format: ADME
SIRT7 = biological target: T3, SIRT7 (Homo sapiens, UniProt Q9NRC8); assay: Inhibition of SIRT7 (unknown origin) at 10 uM relative to control
T3 sequence (Q9NRC8 whole entry): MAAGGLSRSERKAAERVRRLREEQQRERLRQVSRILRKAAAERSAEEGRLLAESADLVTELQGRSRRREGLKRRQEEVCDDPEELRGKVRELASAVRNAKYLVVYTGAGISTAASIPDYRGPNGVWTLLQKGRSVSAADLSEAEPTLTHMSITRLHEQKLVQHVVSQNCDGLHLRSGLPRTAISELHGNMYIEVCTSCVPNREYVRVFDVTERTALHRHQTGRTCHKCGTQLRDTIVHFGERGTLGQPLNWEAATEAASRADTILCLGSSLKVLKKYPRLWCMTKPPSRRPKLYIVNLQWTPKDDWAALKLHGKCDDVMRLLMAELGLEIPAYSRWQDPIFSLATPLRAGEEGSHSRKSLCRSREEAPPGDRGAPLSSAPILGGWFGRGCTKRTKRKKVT

CYP2C19 = CYP2C19 (Homo sapiens, UniProt P33261); assay: Inhibition of CYP2C19 (unknown origin) at 10 uM relative to control; format: ADME
[16] = Cytotoxicity against human MCF7 cells assessed as cell growth inhibition at 10 uM after 48 hrs relative to control; format: cell-based
CYP2C9 = CYP2C9 (Homo sapiens, UniProt P11712); assay: Inhibition of CYP2C9 (unknown origin) at 10 uM relative to control; format: ADME
CYP3A4 = CYP3A4 (Homo sapiens, UniProt P08684); assay: Inhibition of CYP3A4 (unknown origin) at 10 uM relative to control; format: ADME
HDAC4 = HDAC4 (Homo sapiens, UniProt P56524); assay: Inhibition of HDAC4 (unknown origin) at 10 uM relative to control
CYP1A2 = biological target: T4, CYP1A2 (Homo sapiens, UniProt P05177); assay: Inhibition of CYP1A2 (unknown origin) at 10 uM relative to control; format: ADME
T4 sequence (P05177 whole entry): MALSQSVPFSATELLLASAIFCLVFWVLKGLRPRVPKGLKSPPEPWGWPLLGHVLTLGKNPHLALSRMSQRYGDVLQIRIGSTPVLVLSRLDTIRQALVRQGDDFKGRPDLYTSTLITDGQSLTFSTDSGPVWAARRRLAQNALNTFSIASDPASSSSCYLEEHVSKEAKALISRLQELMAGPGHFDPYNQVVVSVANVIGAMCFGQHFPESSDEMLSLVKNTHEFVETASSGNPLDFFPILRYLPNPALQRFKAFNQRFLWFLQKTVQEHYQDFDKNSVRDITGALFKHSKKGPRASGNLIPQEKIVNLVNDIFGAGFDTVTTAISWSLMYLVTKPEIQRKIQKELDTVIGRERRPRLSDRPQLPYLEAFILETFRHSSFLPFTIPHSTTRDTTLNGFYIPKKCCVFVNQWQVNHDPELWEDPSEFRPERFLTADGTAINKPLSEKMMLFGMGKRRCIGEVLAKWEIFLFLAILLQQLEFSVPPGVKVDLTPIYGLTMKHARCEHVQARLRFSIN

[17] = Cytotoxicity against human MCF7 cells assessed as cell growth inhibition at 10 uM after 24 hrs relative to control; format: cell-based
[18] = Cytotoxicity against human U2OS cells assessed as cell growth inhibition at 10 uM after 24 hrs relative to control; format: cell-based

CYP2C19, sequence (P33261 whole entry): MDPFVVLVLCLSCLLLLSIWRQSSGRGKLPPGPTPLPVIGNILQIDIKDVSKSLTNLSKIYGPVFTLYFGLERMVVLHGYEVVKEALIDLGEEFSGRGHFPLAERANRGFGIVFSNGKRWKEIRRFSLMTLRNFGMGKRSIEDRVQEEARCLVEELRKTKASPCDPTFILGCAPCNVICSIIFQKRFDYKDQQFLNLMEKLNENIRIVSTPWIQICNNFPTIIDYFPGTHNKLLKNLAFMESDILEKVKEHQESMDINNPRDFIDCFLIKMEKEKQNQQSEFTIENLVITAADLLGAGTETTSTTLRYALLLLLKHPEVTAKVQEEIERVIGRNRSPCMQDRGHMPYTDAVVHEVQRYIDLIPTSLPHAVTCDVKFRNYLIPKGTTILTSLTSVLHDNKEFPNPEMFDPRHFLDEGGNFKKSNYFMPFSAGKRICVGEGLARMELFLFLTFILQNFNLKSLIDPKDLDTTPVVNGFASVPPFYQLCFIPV
HDAC9, sequence (Q9UKV0 whole entry): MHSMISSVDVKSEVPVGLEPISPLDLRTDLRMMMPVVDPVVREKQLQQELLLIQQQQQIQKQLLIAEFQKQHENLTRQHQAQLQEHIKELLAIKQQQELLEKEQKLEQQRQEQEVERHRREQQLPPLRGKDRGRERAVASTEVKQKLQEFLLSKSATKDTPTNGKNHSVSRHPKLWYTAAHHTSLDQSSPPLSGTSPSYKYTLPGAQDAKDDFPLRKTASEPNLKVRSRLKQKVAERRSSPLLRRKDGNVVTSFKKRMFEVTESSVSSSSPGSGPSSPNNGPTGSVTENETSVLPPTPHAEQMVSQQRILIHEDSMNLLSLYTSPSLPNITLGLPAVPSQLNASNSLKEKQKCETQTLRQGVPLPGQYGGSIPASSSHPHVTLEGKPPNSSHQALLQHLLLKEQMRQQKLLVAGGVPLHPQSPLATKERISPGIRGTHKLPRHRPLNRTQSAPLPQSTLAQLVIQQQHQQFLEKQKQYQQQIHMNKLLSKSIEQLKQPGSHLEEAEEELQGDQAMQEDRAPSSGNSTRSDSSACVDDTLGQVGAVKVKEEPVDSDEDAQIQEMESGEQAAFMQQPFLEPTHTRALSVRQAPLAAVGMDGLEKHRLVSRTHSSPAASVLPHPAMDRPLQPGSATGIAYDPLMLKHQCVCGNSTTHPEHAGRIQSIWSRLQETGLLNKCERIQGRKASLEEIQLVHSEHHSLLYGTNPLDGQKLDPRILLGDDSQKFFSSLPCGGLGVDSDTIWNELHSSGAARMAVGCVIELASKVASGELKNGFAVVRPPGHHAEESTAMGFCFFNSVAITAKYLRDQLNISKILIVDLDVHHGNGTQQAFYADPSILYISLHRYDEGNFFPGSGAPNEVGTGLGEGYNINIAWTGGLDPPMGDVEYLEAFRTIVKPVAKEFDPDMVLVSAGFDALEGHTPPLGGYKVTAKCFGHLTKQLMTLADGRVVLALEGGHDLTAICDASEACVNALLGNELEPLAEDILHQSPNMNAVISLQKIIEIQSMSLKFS
CYP3A4, sequence (P08684 whole entry): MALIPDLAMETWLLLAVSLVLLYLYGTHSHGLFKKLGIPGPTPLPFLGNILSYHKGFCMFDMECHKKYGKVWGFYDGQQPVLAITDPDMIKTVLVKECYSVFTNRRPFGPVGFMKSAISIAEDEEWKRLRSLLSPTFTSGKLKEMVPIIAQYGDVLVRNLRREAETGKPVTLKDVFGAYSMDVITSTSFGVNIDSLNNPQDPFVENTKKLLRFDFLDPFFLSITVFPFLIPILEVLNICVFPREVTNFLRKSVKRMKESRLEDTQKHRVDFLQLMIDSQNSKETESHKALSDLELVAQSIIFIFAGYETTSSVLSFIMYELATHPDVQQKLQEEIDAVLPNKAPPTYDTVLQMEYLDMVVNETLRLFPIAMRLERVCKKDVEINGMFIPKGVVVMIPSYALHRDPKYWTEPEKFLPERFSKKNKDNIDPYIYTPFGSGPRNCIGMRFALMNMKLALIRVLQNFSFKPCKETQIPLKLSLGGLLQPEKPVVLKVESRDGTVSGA
HDAC4, sequence (P56524 whole entry): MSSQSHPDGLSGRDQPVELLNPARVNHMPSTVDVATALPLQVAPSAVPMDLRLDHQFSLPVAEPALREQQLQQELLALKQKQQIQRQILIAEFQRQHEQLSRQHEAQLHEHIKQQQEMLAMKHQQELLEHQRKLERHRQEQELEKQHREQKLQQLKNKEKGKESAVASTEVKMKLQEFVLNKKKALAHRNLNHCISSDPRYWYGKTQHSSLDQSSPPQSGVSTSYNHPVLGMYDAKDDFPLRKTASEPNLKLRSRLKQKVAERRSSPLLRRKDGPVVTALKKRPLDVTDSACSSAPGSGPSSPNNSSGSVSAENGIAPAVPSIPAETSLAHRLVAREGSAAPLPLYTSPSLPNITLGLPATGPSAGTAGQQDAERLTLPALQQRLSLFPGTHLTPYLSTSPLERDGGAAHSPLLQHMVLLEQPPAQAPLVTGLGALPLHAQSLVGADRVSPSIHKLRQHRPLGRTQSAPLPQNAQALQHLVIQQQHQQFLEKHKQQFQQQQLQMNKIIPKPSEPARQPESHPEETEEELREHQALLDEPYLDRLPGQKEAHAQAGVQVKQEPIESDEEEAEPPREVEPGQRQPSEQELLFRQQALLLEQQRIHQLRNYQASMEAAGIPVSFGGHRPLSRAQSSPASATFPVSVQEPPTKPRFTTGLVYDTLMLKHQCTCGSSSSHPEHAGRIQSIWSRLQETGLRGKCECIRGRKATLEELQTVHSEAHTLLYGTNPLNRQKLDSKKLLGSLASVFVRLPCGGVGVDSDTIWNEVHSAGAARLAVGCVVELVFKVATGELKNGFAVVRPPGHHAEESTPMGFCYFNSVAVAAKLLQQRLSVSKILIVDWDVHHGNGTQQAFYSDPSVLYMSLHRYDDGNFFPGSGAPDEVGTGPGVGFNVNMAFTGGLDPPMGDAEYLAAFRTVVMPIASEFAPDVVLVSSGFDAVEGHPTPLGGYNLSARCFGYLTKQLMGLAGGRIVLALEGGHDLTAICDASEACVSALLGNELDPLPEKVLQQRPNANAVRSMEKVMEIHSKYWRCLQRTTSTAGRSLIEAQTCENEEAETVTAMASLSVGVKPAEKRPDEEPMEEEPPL
CYP2C9, sequence (P11712 whole entry): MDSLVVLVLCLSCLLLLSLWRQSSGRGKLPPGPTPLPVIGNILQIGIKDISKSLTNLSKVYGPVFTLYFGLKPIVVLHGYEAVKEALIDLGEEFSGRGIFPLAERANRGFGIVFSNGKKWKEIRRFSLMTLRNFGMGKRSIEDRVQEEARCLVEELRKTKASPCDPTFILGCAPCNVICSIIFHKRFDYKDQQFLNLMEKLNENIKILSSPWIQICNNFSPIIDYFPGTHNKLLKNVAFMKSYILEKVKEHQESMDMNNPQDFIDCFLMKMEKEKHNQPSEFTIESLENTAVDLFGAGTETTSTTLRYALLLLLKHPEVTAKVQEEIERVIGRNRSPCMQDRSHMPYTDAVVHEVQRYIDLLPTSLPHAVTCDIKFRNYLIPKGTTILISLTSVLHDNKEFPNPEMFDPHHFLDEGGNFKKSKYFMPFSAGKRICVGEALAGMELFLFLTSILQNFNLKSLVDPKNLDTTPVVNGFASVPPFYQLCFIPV
Aurora B, sequence (Q96GD4 whole entry): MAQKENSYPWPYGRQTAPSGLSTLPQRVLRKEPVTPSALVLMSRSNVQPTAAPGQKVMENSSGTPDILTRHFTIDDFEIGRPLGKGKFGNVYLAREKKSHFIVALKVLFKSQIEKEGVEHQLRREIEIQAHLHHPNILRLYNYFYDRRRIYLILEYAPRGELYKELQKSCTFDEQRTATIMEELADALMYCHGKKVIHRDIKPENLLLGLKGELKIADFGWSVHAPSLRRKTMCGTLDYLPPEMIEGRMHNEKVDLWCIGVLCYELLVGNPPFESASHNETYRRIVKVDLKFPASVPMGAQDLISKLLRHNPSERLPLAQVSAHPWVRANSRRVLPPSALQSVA
3',5'-cyclic-AMP phosphodiesterase 4C (Homo sapiens), sequence (Q08493 whole entry): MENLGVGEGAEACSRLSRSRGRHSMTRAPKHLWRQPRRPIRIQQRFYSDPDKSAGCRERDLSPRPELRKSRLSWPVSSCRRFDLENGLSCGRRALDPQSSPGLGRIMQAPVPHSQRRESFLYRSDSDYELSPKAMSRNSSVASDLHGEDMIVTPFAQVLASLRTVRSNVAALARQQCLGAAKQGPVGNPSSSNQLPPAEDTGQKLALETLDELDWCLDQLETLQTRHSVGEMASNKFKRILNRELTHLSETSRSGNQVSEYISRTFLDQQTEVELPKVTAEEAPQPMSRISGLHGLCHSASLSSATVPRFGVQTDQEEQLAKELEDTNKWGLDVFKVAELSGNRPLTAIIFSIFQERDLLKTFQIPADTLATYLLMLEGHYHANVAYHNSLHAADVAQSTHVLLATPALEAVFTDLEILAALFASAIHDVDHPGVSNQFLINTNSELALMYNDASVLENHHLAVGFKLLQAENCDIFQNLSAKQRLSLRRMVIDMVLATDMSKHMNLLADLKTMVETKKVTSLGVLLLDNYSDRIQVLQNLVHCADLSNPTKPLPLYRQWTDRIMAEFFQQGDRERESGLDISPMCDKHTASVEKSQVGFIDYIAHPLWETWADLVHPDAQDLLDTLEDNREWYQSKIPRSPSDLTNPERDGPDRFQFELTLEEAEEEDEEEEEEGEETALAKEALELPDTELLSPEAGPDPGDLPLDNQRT

| inhibition [10] [%] | inhibition at 10 µM (HDAC9) [%] | inhibition at 10 µM (HDAC6) [%] | inhibition at 10 µM (HDAC8) [%] | inhibition at 10 µM (Aurora B) [%] | inhibition at 10 µM (CYP2D6) [%] | inhibition at 10 µM (SIRT7) [%] | inhibition at 10 µM (CYP2C19) [%] | inhibition at 10 µM (CYP2C9) [%] | inhibition at 10 µM (CYP3A4) [%] | inhibition at 10 µM (HDAC4) [%] | inhibition at 10 µM (CYP1A2) [%] | SMILES | inhibition at 48 h, 10 µM [11] [%] | inhibition at 24 h, 10 µM [12] [%] | inhibition at 24 h, 10 µM [13] [%] | inhibition at 48 h, 10 µM [14] [%] | inhibition at 10 µM (hERG (KCNH2)) [%] | inhibition at 48 h, 10 µM [15] [%] | inhibition at 48 h, 10 µM [16] [%] | inhibition at 24 h, 10 µM [17] [%] | further results |
| --- | --- | --- | --- | --- | --- | --- | --- | --- | --- | --- | --- | --- | --- | --- | --- | --- | --- | --- | --- | --- | --- |
|  |  |  |  |  |  |  |  |  |  |  |  | N[C@@H](Cc1cc(I)c(Oc2ccc(O)c(I)c2)c(I)c1)C(=O)O [LIOTHYRONINE] |  |  |  |  |  |  |  |  | Activity [1]: Toxic; Activity [2]: Toxic; Activity [3]: 159 U/L; Activity [4]: 65.2 mg/dL; Activity [5]: Toxic; Activity [6]: 53 U/L; Activity [7]: 139 mg/dL; Activity [8]: 1.4 mg/dL; Activity [9]: 90.2 mg/dL |
| < 50 | < 50 | < 50 | < 50 | < 50 | 51 | < 50 | > 91 | > 91 | 51 | < 50 | 51 | Cc1cc(OCCN)cc(C)c1Cc1ccc(O)cc1 | < 50 | < 50 | < 50 | < 50 | 51 | < 50 | < 50 | < 50 | inhibition at 24 h, 10 µM [18]: < 50% |
| < 50 | < 50 | < 50 | < 50 | < 50 | < 50 | < 50 | < 50 | 51 | < 50 | < 50 | < 50 | Nc1ccc(Cc2ccc(OCC(=O)O)cc2F)cc1 | < 50 | < 50 | < 50 | < 50 | > 91 | < 50 | < 50 | < 50 | inhibition at 24 h, 10 µM [18]: < 50% |
